Measured values: BigSolDB 2.1

CN1CCN(C(=O)O[C@H]2c3nccnc3C(=O)N2c2ccc(Cl)cn2)CC1
solubility (mole fraction) (in acetone, 288.15 K): 0.0013 | solubility (mole fraction) (in acetone, 293.15 K): 0.00153 | solubility (mole fraction) (in acetone, 298.15 K): 0.0019 | solubility (mole fraction) (in acetone, 303.15 K): 0.00229 | solubility (mole fraction) (in acetone, 308.15 K): 0.00269 | solubility (mole fraction) (in acetone, 313.15 K): 0.00318 | solubility (mole fraction) (in acetone, 318.15 K): 0.0037 | solubility (mole fraction) (in ethanol, 288.15 K): 0.00023 | solubility (mole fraction) (in ethanol, 293.15 K): 0.000282 | solubility (mole fraction) (in ethanol, 298.15 K): 0.00036 | solubility (mole fraction) (in ethanol, 303.15 K): 0.000431 | solubility (mole fraction) (in ethanol, 308.15 K): 0.000526 | solubility (mole fraction) (in ethanol, 313.15 K): 0.000672 | solubility (mole fraction) (in ethanol, 318.15 K): 0.000851 | solubility (mole fraction) (in ethanol, 323.15 K): 0.000996 | solubility (mole fraction) (in ethanol, 328.15 K): 0.0012 | solubility (mole fraction) (in isopropyl acetate, 288.15 K): 0.000682 | solubility (mole fraction) (in isopropyl acetate, 293.15 K): 0.000796 | solubility (mole fraction) (in isopropyl acetate, 298.15 K): 0.000964 | solubility (mole fraction) (in isopropyl acetate, 303.15 K): 0.0012 | solubility (mole fraction) (in isopropyl acetate, 308.15 K): 0.0014 | solubility (mole fraction) (in isopropyl acetate, 313.15 K): 0.00163 | solubility (mole fraction) (in isopropyl acetate, 318.15 K): 0.00182 | solubility (mole fraction) (in isopropyl acetate, 323.15 K): 0.00203 | solubility (mole fraction) (in isopropyl acetate, 328.15 K): 0.00226 | solubility (mole fraction) (in methyl acetate, 288.15 K): 0.00187 | solubility (mole fraction) (in methyl acetate, 293.15 K): 0.00217 | solubility (mole fraction) (in methyl acetate, 298.15 K): 0.0025 | solubility (mole fraction) (in methyl acetate, 303.15 K): 0.00303 | solubility (mole fraction) (in methyl acetate, 308.15 K): 0.00356 | solubility (mole fraction) (in methyl acetate, 313.15 K): 0.00414 | solubility (mole fraction) (in methyl acetate, 318.15 K): 0.00484 | solubility (mole fraction) (in n-propanol, 288.15 K): 0.00013 | solubility (mole fraction) (in n-propanol, 293.15 K): 0.000172 | solubility (mole fraction) (in n-propanol, 298.15 K): 0.000215 | solubility (mole fraction) (in n-propanol, 303.15 K): 0.000292 | solubility (mole fraction) (in n-propanol, 308.15 K): 0.000382 | solubility (mole fraction) (in n-propanol, 313.15 K): 0.000493 | solubility (mole fraction) (in n-propanol, 318.15 K): 0.00059 | solubility (mole fraction) (in n-propanol, 323.15 K): 0.00079 | solubility (mole fraction) (in n-propanol, 328.15 K): 0.00101 | solubility (mole fraction) (in n-propyl acetate, 288.15 K): 0.000851 | solubility (mole fraction) (in n-propyl acetate, 293.15 K): 0.00102 | solubility (mole fraction) (in n-propyl acetate, 298.15 K): 0.00124 | solubility (mole fraction) (in n-propyl acetate, 303.15 K): 0.00153 | solubility (mole fraction) (in n-propyl acetate, 308.15 K): 0.00183 | solubility (mole fraction) (in n-propyl acetate, 313.15 K): 0.00208 | solubility (mole fraction) (in n-propyl acetate, 318.15 K): 0.00239 | solubility (mole fraction) (in n-propyl acetate, 323.15 K): 0.0027 | solubility (mole fraction) (in n-propyl acetate, 328.15 K): 0.00303
